ChEMBL document CHEMBL3352393, “Gallic acid, one of the components in many plant tissues, is a potential inhibitor for insulin amyloid fibril formation” (Eur J Med Chem, 2014)
Activity calls are given as the source filed them. The rule behind the calls is not given here.

Assays:
Homo sapiens [1] = organism: Homo sapiens; assay: Inhibition of insulin fibril formation (unknown origin) assessed as turbidity at 1:5 insulin to compound ratio at pH2 up to 12 hrs by UV/vis spectrometry; details: concentration not given here
Homo sapiens [2] = organism: Homo sapiens; assay: Inhibition of insulin fibril formation (unknown origin) assessed as turbidity at 1:10 insulin to compound ratio at pH2 up to 12 hrs by UV/vis spectrometry
Homo sapiens [3] = organism: Homo sapiens; assay: Inhibition of insulin fibril formation (unknown origin) assessed as turbidity at 1:50 insulin to compound ratio at pH2 up to 12 hrs by UV/vis spectrometry; details: concentration not given here
Homo sapiens [4] = organism: Homo sapiens; assay: Inhibition of insulin fibril formation (unknown origin) assessed as turbidity at pH2 up to 12 hrs by UV/vis spectrometry
Homo sapiens [5] = organism: Homo sapiens; assay: Inhibition of insulin fibril formation (unknown origin) assessed as turbidity at 1:20 insulin to compound ratio at pH2 up to 12 hrs by atomic force microscopy
Homo sapiens [6] = organism: Homo sapiens; assay: Inhibition of insulin fibril formation (unknown origin) assessed as decrease in ThT fluorescence at 1:5 insulin to compound ratio at pH2 up to 12 hrs by ThT binding assay
Homo sapiens [7] = organism: Homo sapiens; assay: Inhibition of insulin fibril formation (unknown origin) assessed as decrease in ThT fluorescence at 1:50 insulin to compound ratio at pH2 up to 12 hrs by ThT binding assay
Homo sapiens [8] = organism: Homo sapiens; assay: Inhibition of insulin fibril formation (unknown origin) assessed as secondary structural changes at 1:5 insulin to compound ratio at pH2 up to 12 hrs by Far-UV CD spectra
Homo sapiens [9] = organism: Homo sapiens; assay: Inhibition of insulin fibril formation (unknown origin) assessed as secondary structural changes at 1:5 insulin to compound ratio at pH2 up to 12 hrs by FT-IR technique

O=C(O)c1cc(O)c(O)c(O)c1
inhibition (Homo sapiens [1]): > 50% | inhibition (Homo sapiens [2]): Active | inhibition (Homo sapiens [3]): 90% | inhibition (Homo sapiens [4]): Dose-dependent effect | inhibition (Homo sapiens [5]): Active | inhibition (Homo sapiens [6]): Active | inhibition (Homo sapiens [7]): Active | inhibition (Homo sapiens [8]): Active | inhibition (Homo sapiens [9]): Active
